From PMC6321168, “Comparative Study on Excretive Characterization of Main Components in Herb Pair Notoginseng-Safflower and Single Herbs by LC–MS/MS” (Pharmaceutics, 2018)

Experiment: Urinary excretion study in rats after oral NS, SF or CNS (LC–MS/MS)
Assay type: in vivo
Details: for concentration at 2 h / concentration at 4 h / concentration at 8 h / concentration at 12 h / concentration at 24 h / concentration at 36 h / concentration at 48 h / concentration at 72 h / concentration at 96 h / concentration at 120 h / concentration at 6 h: male, Sprague Dawley, rat, urine, oral; for Accumulative excretion amount / Accumulative excretion percentage / Excretion amount: rat urine
How it was run: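 Analytes were quantified by UFLC with negative electrospray MRM detection in urine collected up to 120 h. Doses were oral: 60 mg/kg NS, 50 mg/kg SF, or the combination, each to six fasted male rats. Results are reported as % cumulative excretion relative to the amount ingested.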

Q: With CC(C)=CCC[C@](C)(O[C@@H]1O[C@H](CO)[C@@H](O)[C@H](O)[C@H]1O)[C@H]1CC[C@]2(C)[C@@H]1[C@H](O)C[C@@H]1[C@@]3(C)CC[C@H](O[C@@H]4O[C@H](CO)[C@@H](O)[C@H](O)[C@H]4O[C@@H]4O[C@H](CO)[C@@H](O)[C@H](O)[C@H]4O)C(C)(C)[C@@H]3CC[C@]12C [ginsenoside Rd] as the molecule, how does the concentration at 2 h (60 mg/kg, oral NS 60 mg/kg, 2 h) read?
A: 17 ± 39 ng/mL

Q: And the concentration at 4 h (60 mg/kg, oral NS 60 mg/kg, 4 h)?
A: 33 ± 69 ng/mL

Q: What about the concentration at 8 h (60 mg/kg, oral NS 60 mg/kg, 8 h) of the same molecule?
A: 9 ± 12 ng/mL

Q: What about the concentration at 12 h (60 mg/kg, oral NS 60 mg/kg, 12 h) of the same molecule?
A: 28 ± 19 ng/mL

Q: What about the concentration at 24 h (60 mg/kg, oral NS 60 mg/kg, 24 h) of the same molecule?
A: 34 ± 63 ng/mL

Q: What about the concentration at 36 h (60 mg/kg, oral NS 60 mg/kg, 36 h) of the same molecule?
A: 17 ± 33 ng/mL

Q: And the concentration at 48 h (60 mg/kg, oral NS 60 mg/kg, 48 h)?
A: 12 ± 19 ng/mL

Q: What about the concentration at 72 h (60 mg/kg, oral NS 60 mg/kg, 72 h) of the same molecule?
A: 12 ± 23 ng/mL

Q: And the concentration at 96 h (60 mg/kg, oral NS 60 mg/kg, 96 h)?
A: 6 ± 10 ng/mL

Q: And the concentration at 120 h (60 mg/kg, oral NS 60 mg/kg, 120 h)?
A: 3 ± 6 ng/mL

Q: And the concentration at 2 h (oral CNS 110 mg/kg, 2 h)?
A: 22 ± 42 ng/mL

Q: And the concentration at 4 h (oral CNS 110 mg/kg, 4 h)?
A: 9 ± 15 ng/mL

Q: And the concentration at 6 h (oral CNS 110 mg/kg, 6 h)?
A: 17 ± 16 ng/mL

Q: And the concentration at 8 h (oral CNS 110 mg/kg, 8 h)?
A: 38 ± 75 ng/mL

Q: And the concentration at 12 h (oral CNS 110 mg/kg, 12 h)?
A: 53 ± 110 ng/mL

Q: And the concentration at 24 h (oral CNS 110 mg/kg, 24 h)?
A: 315 ± 787 ng/mL

Q: What about the concentration at 36 h (oral CNS 110 mg/kg, 36 h) of the same molecule?
A: 41 ± 68 ng/mL

Q: And the concentration at 48 h (oral CNS 110 mg/kg, 48 h)?
A: 30 ± 70 ng/mL

Q: And the concentration at 72 h (oral CNS 110 mg/kg, 72 h)?
A: 16 ± 35 ng/mL

Q: And the concentration at 96 h (oral CNS 110 mg/kg, 96 h)?
A: 16 ± 36 ng/mL

Q: And the concentration at 120 h (oral CNS 110 mg/kg, 120 h)?
A: 10 ± 17 ng/mL

Q: And the concentration at 6 h (oral NS 60 mg/kg, 6 h)?
A: 10 ± 18 ng/mL

Q: And the Accumulative excretion amount (oral CNS 110 mg/kg, 2 h)?
A: 0.005 ± 0.005 µg

Q: What about the Accumulative excretion percentage (oral CNS 110 mg/kg, 2 h) of the same molecule?
A: 0.001±0.001%

Q: What about the Excretion amount (oral CNS 110 mg/kg, 2 h) of the same molecule?
A: 0.005 ± 0.005 µg

Q: And the Accumulative excretion amount (oral CNS 110 mg/kg, 4 h)?
A: 0.009 ± 0.008 µg

Q: And the Accumulative excretion percentage (oral CNS 110 mg/kg, 4 h)?
A: 0.001±0.001%

Q: And the Excretion amount (oral CNS 110 mg/kg, 4 h)?
A: 0.005 ± 0.007 µg

Q: What about the Accumulative excretion amount (oral CNS 110 mg/kg, 6 h) of the same molecule?
A: 0.024 ± 0.023 µg

Q: What about the Accumulative excretion percentage (oral CNS 110 mg/kg, 6 h) of the same molecule?
A: 0.003±0.003%

Q: What about the Excretion amount (oral CNS 110 mg/kg, 6 h) of the same molecule?
A: 0.018 ± 0.018 µg

Q: And the Accumulative excretion amount (oral CNS 110 mg/kg, 8 h)?
A: 0.029 ± 0.024 µg

Q: What about the Accumulative excretion percentage (oral CNS 110 mg/kg, 8 h) of the same molecule?
A: 0.004±0.003%

Q: And the Excretion amount (oral CNS 110 mg/kg, 8 h)?
A: 0.010 ± 0.009 µg

Q: And the Accumulative excretion amount (oral CNS 110 mg/kg, 12 h)?
A: 0.045 ± 0.040 µg

Q: What about the Accumulative excretion percentage (oral CNS 110 mg/kg, 12 h) of the same molecule?
A: 0.006±0.005%

Q: And the Excretion amount (oral CNS 110 mg/kg, 12 h)?
A: 0.019 ± 0.016 µg

Q: And the Accumulative excretion amount (oral CNS 110 mg/kg, 24 h)?
A: 0.103 ± 0.083 µg

Q: What about the Accumulative excretion percentage (oral CNS 110 mg/kg, 24 h) of the same molecule?
A: 0.014±0.011%

Q: What about the Excretion amount (oral CNS 110 mg/kg, 24 h) of the same molecule?
A: 0.058 ± 0.066 µg

Q: What about the Accumulative excretion amount (oral CNS 110 mg/kg, 36 h) of the same molecule?
A: 0.114 ± 0.086 µg

Q: And the Accumulative excretion percentage (oral CNS 110 mg/kg, 36 h)?
A: 0.015±0.011%

Q: And the Excretion amount (oral CNS 110 mg/kg, 36 h)?
A: 0.011 ± 0.009 µg

Q: And the Accumulative excretion amount (oral CNS 110 mg/kg, 48 h)?
A: 0.135 ± 0.096 µg

Q: What about the Accumulative excretion percentage (oral CNS 110 mg/kg, 48 h) of the same molecule?
A: 0.018±0.013%

Q: What about the Excretion amount (oral CNS 110 mg/kg, 48 h) of the same molecule?
A: 0.021 ± 0.024 µg

Q: And the Accumulative excretion amount (oral CNS 110 mg/kg, 72 h)?
A: 0.139 ± 0.098 µg

Q: And the Accumulative excretion percentage (oral CNS 110 mg/kg, 72 h)?
A: 0.018±0.013%

Q: What about the Excretion amount (oral CNS 110 mg/kg, 72 h) of the same molecule?
A: 0.004 ± 0.004 µg

Q: What about the Accumulative excretion amount (oral CNS 110 mg/kg, 96 h) of the same molecule?
A: 0.144 ± 0.100 µg

Q: And the Accumulative excretion percentage (oral CNS 110 mg/kg, 96 h)?
A: 0.019±0.013%

Q: And the Excretion amount (oral CNS 110 mg/kg, 96 h)?
A: 0.005 ± 0.005 µg

Q: What about the Accumulative excretion amount (oral CNS 110 mg/kg, 120 h) of the same molecule?
A: 0.148 ± 0.101 µg

Q: And the Accumulative excretion percentage (oral CNS 110 mg/kg, 120 h)?
A: 0.019±0.013%

Q: And the Excretion amount (oral CNS 110 mg/kg, 120 h)?
A: 0.004 ± 0.004 µg

Q: And the Accumulative excretion amount (oral NS 60 mg/kg, 2 h)?
A: 0.022 ± 0.025 µg

Q: And the Accumulative excretion percentage (oral NS 60 mg/kg, 2 h)?
A: 0.002±0.003%

Q: And the Excretion amount (oral NS 60 mg/kg, 2 h)?
A: 0.022 ± 0.025 µg

Q: What about the Accumulative excretion amount (oral NS 60 mg/kg, 4 h) of the same molecule?
A: 0.027 ± 0.029 µg

Q: What about the Accumulative excretion percentage (oral NS 60 mg/kg, 4 h) of the same molecule?
A: 0.003±0.003%

Q: What about the Excretion amount (oral NS 60 mg/kg, 4 h) of the same molecule?
A: 0.008 ± 0.003 µg

Q: And the Accumulative excretion amount (oral NS 60 mg/kg, 6 h)?
A: 0.048 ± 0.039 µg

Q: And the Accumulative excretion percentage (oral NS 60 mg/kg, 6 h)?
A: 0.006±0.004%

Q: And the Excretion amount (oral NS 60 mg/kg, 6 h)?
A: 0.021 ± 0.020 µg

Q: And the Accumulative excretion amount (oral NS 60 mg/kg, 8 h)?
A: 0.097 ± 0.129 µg

Q: What about the Accumulative excretion percentage (oral NS 60 mg/kg, 8 h) of the same molecule?
A: 0.011±0.015%

Q: What about the Excretion amount (oral NS 60 mg/kg, 8 h) of the same molecule?
A: 0.082 ± 0.123 µg

Q: What about the Accumulative excretion amount (oral NS 60 mg/kg, 12 h) of the same molecule?
A: 0.173 ± 0.206 µg

Q: What about the Accumulative excretion percentage (oral NS 60 mg/kg, 12 h) of the same molecule?
A: 0.020±0.024%

Q: What about the Excretion amount (oral NS 60 mg/kg, 12 h) of the same molecule?
A: 0.076 ± 0.083 µg

Q: And the Accumulative excretion amount (oral NS 60 mg/kg, 24 h)?
A: 0.279 ± 0.198 µg

Q: And the Accumulative excretion percentage (oral NS 60 mg/kg, 24 h)?
A: 0.032±0.023%

Q: What about the Excretion amount (oral NS 60 mg/kg, 24 h) of the same molecule?
A: 0.106 ± 0.109 µg

Q: And the Accumulative excretion amount (oral NS 60 mg/kg, 36 h)?
A: 0.311 ± 0.182 µg

Q: And the Accumulative excretion percentage (oral NS 60 mg/kg, 36 h)?
A: 0.036±0.021%

Q: And the Excretion amount (oral NS 60 mg/kg, 36 h)?
A: 0.041 ± 0.012 µg

Q: And the Accumulative excretion amount (oral NS 60 mg/kg, 48 h)?
A: 0.359 ± 0.187 µg

Q: And the Accumulative excretion percentage (oral NS 60 mg/kg, 48 h)?
A: 0.041±0.021%

Q: What about the Excretion amount (oral NS 60 mg/kg, 48 h) of the same molecule?
A: 0.048 ± 0.045 µg

Q: And the Accumulative excretion amount (oral NS 60 mg/kg, 72 h)?
A: 0.372 ± 0.200 µg

Q: What about the Accumulative excretion percentage (oral NS 60 mg/kg, 72 h) of the same molecule?
A: 0.043±0.023%

Q: What about the Excretion amount (oral NS 60 mg/kg, 72 h) of the same molecule?
A: 0.013 ± 0.018 µg

Q: What about the Accumulative excretion amount (oral NS 60 mg/kg, 96 h) of the same molecule?
A: 0.379 ± 0.211 µg

Q: And the Accumulative excretion percentage (oral NS 60 mg/kg, 96 h)?
A: 0.044±0.024%

Q: And the Excretion amount (oral NS 60 mg/kg, 96 h)?
A: 0.008 ± 0.013 µg

Q: What about the Accumulative excretion amount (oral NS 60 mg/kg, 120 h) of the same molecule?
A: 0.386 ± 0.221 µg

Q: What about the Accumulative excretion percentage (oral NS 60 mg/kg, 120 h) of the same molecule?
A: 0.044±0.025%

Q: And the Excretion amount (oral NS 60 mg/kg, 120 h)?
A: 0.007 ± 0.012 µg
